Key:
H1975 (L858R/T790M) = assay: EGFR cell proliferation assay (CellTiter-Glo), H1975; format: cell-based; details: Homo sapiens, NCI-H1975, 3-5 days of compound treatment
Procedure: (§1) Cell Lines: A431 (WT), H1975 (L858R/T790M), PC9 (E746-A750 deletion): A431 cells were grown in DMEM (Invitrogen, Carlsbad, CA) supplemented with 10% FBS (HyClone, South Logan, UT) and 1% Penicillin-Streptomycin (P/S, Lonza, Walkersville, MD). H1975 cells were grown in RPMI 1640 (Invitrogen) supplemented with 10% FBS and 1% P/S. […] PC-9 cells were obtained from Japan. All cells were maintained and propagated as monolayer cultures at 37° C. in a humidified 5% CO2 incubator. All cells were cultured according to recommendations.
(§2) Cell proliferation was measured using the CellTiter-Glo® Luminescent Cell Viability Assay. The assay involved the addition of a single reagent (CellTiter-Glo® Reagent) directly to cells cultured in serum-supplemented medium. The assay used a one-step addition to induce cell lysis and generate a luminescent signal proportional to the amount of ATP present, which is directly proportional to the number of metabolically active cells present in culture.
(§3) Each compound evaluated was prepared as a DMSO stock solution (10 mM). Compounds were tested in duplicate on each plate, with an 11-point serial dilution curve (1:3 dilution). Compound treatment (50 μL) was added from the compound dilution plate to the cell plate. The highest compound concentration was 1 or 10 μM (final), with a 0.3% final DMSO (#D-5879, Sigma, St Louis, MO) concentration. Plates were then incubated at 37° C., 5% CO2. After 3-5 days of compound treatment, CellTiter-Glo® Reagent (#G7573, Promega, Madison, WI) was prepared in one of two ways. If thawing a frozen aliquot of CellTiter-Glo® Reagent, the aliquot was thawed and equilibrated to RT prior to use while keeping it protected from light. Alternatively, new bottles of CellTiter-Glo® Buffer and CellTiter-Glo® Substrate were thawed and equilibrated to RT prior to use. CellTiter-Glo® Buffer (100 mL) was transferred into the amber bottle containing CellTiter-Glo® Substrate to reconstitute the lyophilized enzyme/substrate mixture, forming the CellTiter-Glo® Reagent. The reconstituted reagent was mixed by gently inverting the contents to obtain a homogeneous solution, and went into solution easily in less than 1 min. Any unused reconstituted CellTiter-Glo® Reagent was immediately aliquoted and frozen at −20° C., and protected from light. Cell plates were equilibrated at RT for approximately 30 mins. An equi-volume amount of CellTiter-Glo® Reagent (100 μL) was added to each well. Plates were mixed for 2 mins on an orbital shaker to induce cell lysis, and then were allowed to incubate at RT for 10 mins to stabilize the luminescent signal. Luminescence was recorded using the PerkinElmer EnVision Excite Multilabel Reader used for endpoint reading for luminescence detection (Waltham, MA). Data was analyzed using a four-parameter fit in Microsoft Excel.

PC9 (E746-A750 deletion) = assay: EGFR cell proliferation assay (CellTiter-Glo), PC9; format: cell-based; details: 3-5 days of compound treatment
Procedure: as §1, §2, §3

EGFR L858R = EGFR L858R (Homo sapiens, UniProt P00533, L858R); assay: EGFR biochemical enzyme assay, L858R
Chain of EGFR L858R (P00533 25-1210 L858R): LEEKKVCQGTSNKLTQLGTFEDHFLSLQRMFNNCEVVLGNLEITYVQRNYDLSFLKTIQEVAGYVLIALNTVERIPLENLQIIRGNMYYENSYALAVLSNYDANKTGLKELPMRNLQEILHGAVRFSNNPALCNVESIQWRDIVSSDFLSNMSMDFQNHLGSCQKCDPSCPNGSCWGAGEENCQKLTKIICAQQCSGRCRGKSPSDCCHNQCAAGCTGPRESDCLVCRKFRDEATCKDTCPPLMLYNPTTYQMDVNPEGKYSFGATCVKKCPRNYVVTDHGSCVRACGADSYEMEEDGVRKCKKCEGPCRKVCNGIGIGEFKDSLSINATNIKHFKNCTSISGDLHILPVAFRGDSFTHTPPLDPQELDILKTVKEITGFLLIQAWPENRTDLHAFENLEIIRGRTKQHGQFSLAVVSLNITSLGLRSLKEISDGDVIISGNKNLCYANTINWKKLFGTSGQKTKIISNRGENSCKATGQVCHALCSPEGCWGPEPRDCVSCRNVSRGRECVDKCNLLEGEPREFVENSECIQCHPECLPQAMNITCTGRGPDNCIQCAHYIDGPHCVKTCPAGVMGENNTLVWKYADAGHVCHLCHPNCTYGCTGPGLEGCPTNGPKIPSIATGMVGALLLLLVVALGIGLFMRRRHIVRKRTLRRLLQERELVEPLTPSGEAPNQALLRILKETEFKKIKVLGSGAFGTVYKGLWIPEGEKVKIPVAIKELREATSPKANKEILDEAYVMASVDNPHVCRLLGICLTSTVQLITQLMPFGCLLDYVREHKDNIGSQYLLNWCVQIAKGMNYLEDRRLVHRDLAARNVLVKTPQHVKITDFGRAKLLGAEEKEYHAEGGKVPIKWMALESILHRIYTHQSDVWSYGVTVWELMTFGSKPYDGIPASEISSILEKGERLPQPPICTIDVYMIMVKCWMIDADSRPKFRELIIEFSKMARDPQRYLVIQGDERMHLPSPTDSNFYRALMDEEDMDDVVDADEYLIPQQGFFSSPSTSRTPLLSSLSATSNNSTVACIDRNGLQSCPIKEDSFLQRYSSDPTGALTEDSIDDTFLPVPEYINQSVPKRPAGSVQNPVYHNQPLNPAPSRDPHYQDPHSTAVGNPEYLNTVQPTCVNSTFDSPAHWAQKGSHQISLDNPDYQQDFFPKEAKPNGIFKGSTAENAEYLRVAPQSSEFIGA
Procedure: [The source words this procedure for another variant and reports this variant under the same test.] (§4) The inhibitory activity of a compound against EGFR (T790M/L858R) were determined with CisBio HTRF (homogenous time-resolved fluorescence) KinEASE TK (#62TKOPEC). The enzyme reaction contained recombinant N-terminal GST-tagged human EGFR (T790M/L858R), which phosphorylates the HTRF tyrosine kinase biotinylated substrate.
(§5) The sequence of the substrate is proprietary to CisBio. Test compounds were serially diluted in 100% (v/v) DMSO before being acoustically dispensed from an Echo 555 (Labcyte) into black Corning 1536-well assay plates. Kinase activity assays were performed in a total reaction volume of 3 μL per well. A 1.5 μL enzyme reaction consisted of 1.6 nM EGFR ([…], L858R), 1 mM DTT, and 10 mM MgCl2. A 1.5 μL substrate mix consisted of 1 μM TK substrate, 30 μM ATP, 1 mM DTT, and 10 mM MgCl2. Following a 50 mins incubation, 3 μL of stop mix was added, which consisted of 250 nM Strep-XL665 and TK Ab-Cryptate diluted in kit detection buffer. The plates were incubated for 1 h before being read on Pherastar using standard HTRF settings. N-terminal GST-tagged recombinant human EGF receptor, with amino acids 696-end containing the T790M and L858R mutations, was obtained from Millipore.

EGFR Wt = EGFR Wt (Homo sapiens, UniProt P00533); assay: EGFR biochemical enzyme assay, Wt
Procedure: [The source words this procedure for another variant and reports this variant under the same test.] as §4, §5

A431 (WT) = assay: EGFR cell proliferation assay (CellTiter-Glo), A431; format: cell-based; details: Homo sapiens, A-431, 3-5 days of compound treatment
Procedure: as §1, §2, §3

EGFR Del-19 = target: T1, EGFR Del-19 (Homo sapiens, UniProt P00533); assay: EGFR biochemical enzyme assay, Del-19
T1 construct: as for the T790M/L858R enzyme of the same protocol
T1 sequence (P00533 with tags, fused parts or gaps DEL746-750): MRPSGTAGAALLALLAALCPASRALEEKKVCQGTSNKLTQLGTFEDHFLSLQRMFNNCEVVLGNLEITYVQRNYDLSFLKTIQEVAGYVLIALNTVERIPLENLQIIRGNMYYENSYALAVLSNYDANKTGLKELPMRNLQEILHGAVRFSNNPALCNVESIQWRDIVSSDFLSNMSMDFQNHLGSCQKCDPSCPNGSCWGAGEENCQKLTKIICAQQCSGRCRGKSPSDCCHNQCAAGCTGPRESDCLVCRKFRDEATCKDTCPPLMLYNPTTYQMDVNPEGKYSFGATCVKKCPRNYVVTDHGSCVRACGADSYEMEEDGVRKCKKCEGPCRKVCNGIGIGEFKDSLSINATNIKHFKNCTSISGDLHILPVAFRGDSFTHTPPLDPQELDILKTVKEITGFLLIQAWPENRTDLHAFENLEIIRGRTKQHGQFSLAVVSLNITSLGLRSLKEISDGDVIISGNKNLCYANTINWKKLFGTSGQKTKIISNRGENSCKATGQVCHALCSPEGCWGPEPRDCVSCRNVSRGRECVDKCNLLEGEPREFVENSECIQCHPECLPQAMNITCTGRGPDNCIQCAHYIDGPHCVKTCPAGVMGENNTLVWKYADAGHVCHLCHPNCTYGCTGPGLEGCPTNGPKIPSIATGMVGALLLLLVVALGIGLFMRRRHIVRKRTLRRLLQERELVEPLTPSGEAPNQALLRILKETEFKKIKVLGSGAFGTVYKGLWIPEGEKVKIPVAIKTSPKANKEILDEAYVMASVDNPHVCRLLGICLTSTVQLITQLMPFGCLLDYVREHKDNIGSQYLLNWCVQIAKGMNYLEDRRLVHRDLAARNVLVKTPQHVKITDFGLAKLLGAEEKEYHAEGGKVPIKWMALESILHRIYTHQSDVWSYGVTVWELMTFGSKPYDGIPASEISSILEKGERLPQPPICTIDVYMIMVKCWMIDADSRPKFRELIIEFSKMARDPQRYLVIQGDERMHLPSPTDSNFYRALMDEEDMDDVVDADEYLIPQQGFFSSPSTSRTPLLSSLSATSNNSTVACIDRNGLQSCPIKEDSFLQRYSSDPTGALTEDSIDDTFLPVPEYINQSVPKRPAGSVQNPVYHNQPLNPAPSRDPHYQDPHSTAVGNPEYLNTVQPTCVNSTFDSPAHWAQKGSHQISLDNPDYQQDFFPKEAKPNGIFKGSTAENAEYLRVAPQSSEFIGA
Procedure: [The source words this procedure for another variant and reports this variant under the same test.] as §4, §5

EGFR (T790M/L858R) = target: T2, EGFR (T790M/L858R) (Homo sapiens, UniProt P00533, L858R/T790M); assay: EGFR biochemical enzyme assay (CisBio HTRF KinEASE TK); details: 30 μM ATP in substrate mix, 50 mins incubation
T2 construct: with amino acids 696-end containing the T790M and L858R mutations; GST (N); purchased Millipore
T2 sequence (P00533 696-1210 T790M/L858R): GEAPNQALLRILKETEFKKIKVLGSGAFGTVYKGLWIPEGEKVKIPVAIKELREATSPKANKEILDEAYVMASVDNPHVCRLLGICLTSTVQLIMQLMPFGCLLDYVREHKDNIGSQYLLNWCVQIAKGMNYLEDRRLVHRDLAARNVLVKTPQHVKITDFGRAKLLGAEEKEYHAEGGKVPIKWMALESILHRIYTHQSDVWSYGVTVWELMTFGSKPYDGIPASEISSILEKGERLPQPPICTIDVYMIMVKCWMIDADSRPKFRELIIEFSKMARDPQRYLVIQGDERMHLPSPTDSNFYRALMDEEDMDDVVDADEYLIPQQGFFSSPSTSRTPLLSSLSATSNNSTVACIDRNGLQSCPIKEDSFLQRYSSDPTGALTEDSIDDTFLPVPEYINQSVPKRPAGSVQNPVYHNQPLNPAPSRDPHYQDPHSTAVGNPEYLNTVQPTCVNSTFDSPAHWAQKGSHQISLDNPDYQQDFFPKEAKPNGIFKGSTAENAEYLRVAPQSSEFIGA
Procedure: as §4, §5

hepatocytes = assay: Metabolite identification in hepatocytes, human; format: in vitro ADME; details: 10 μM, 240 min, formation of AZ5104 via de-alkylation on the indole ring
Procedure: Suspended hepatocytes in enough incubation medium to yield ˜1.5×10^6 cells/mL. Pipetted 199 μL of viable hepatocytes or the boiled hepatocytes into each wells of a 96-well non-coated plate. Placed the plate in the incubator on an orbital shaker to allow the hepatocytes to warm for 10 minutes. Pipetted 1 μL of the 2 mM test compound(s) into respective wells of the 96-well non-coated plate to start the reaction with final concentration of 10 μM. Returned the plate to the incubator and placed on an orbital shaker. Incubated at 37° C., 5% CO2 and 90-95% relative humidity with shaking at 500 rpm on the shaker for 240 min. After incubation, transferred media from each well to a tube containing 400 μL cold methanol, washed the well with 200 μL cold methanol and then transferred the media to the corresponding tube. Centrifuged tubes for 10 minutes at 16,000 g. Aliquots of 200 μL of the supernatants were mixed with 200 μL of pure water and used for LC-MS/MS analysis. UHPLC-MS/MS analysis was conducted using a Dionex UltiMate 3000 UHPLC system (Thermo Fisher Scientific, USA) and Thermo Scientific Q Exactive (Thermo Fisher Scientific, USA) fitted with a HESI probe. […]

[1] = observed with AZD9291 treatment; cited from earlier work
H1975 = details: read-out: H1975 Cell IC50; cited from earlier work
IGF1R = IGF1R (Homo sapiens, UniProt P08069); assay: Biochemical enzyme assay, IGF1R
Chain of IGF1R (P08069 31-1367, species assumed): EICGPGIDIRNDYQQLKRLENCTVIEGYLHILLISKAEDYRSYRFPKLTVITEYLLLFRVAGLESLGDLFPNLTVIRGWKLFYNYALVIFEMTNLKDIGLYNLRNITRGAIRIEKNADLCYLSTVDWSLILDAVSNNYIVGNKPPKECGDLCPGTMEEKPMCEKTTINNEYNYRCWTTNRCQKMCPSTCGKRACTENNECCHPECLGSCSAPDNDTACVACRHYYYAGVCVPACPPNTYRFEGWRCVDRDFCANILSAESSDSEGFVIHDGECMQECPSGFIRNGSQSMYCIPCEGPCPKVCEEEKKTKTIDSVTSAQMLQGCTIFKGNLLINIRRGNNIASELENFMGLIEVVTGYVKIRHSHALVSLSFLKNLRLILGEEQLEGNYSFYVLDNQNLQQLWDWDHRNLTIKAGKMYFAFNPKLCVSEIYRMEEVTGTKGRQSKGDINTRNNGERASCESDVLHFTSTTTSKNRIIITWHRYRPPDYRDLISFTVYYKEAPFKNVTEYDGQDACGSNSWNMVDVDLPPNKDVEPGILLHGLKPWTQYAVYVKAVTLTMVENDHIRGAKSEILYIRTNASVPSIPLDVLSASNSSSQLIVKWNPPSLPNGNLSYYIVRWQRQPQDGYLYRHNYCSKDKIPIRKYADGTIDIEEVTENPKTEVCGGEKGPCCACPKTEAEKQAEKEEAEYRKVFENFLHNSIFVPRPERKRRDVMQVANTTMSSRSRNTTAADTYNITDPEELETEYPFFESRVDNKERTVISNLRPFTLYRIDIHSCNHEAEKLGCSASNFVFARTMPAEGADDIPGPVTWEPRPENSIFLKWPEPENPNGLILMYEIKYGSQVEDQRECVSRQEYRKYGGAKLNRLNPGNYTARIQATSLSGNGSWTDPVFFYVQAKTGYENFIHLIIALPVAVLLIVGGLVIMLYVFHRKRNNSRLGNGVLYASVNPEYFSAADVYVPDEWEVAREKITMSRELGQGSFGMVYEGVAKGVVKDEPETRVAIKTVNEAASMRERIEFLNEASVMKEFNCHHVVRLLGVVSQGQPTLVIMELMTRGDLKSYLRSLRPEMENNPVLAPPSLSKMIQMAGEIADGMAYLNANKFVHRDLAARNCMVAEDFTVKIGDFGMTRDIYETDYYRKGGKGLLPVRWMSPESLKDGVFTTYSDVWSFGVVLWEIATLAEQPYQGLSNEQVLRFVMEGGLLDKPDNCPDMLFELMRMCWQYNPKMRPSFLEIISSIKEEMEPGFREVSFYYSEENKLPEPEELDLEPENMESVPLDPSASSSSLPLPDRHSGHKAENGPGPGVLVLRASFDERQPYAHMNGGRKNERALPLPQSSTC

INSR = INSR (Homo sapiens, UniProt P06213); assay: Biochemical enzyme assay, INSR

IC50 (H1975 (L858R/T790M)) [nM]	IC50 (PC9 (E746-A750 deletion)) [nM]	IC50 (EGFR L858R) [nM]	IC50 (EGFR Wt) [nM]	IC50 (A431 (WT)) [nM]	IC50 (EGFR Del-19) [nM]	IC50 (EGFR (T790M/L858R)) [nM]	Metabolite AZ5104, Human (hepatocytes)	IC50 (IGF1R) [nM]	IC50 (INSR) [nM]	Structure (SMILES)	clinical side effect: diarrhea [1] [%]	clinical side effect: rash [1] [%]	IC50 (H1975) [nM]
≤ 50	≥ 300	≤ 10	≤ 10	≥ 300	≤ 10	≤ 10	–	–	–	C=CC(=O)Nc1cc(Nc2nccc(-c3cn(C45CC(F)(C4)C5)c4ccccc34)n2)c(OC)cc1N(C)CCN(C)C [Example 7, N-(2-((2-(dimethylamino)ethyl)(methyl)amino)-5-((4-(1-(3-fluorobicyclo[1.1.1]pentan-1-yl)-1H-indol-3-yl)pyrimidin-2-yl)amino)-4-methoxyphenyl)acrylamide]	–	–	–
–	–	–	–	–	–	–	Observed	–	–	C=CC(=O)Nc1cc(Nc2nccc(-c3cn(C)c4ccccc34)n2)c(OC)cc1N(C)CCN(C)C [AZD9291]	42	41	15
50 to 300	50 to 300	–	≤ 10	≥ 300	≤ 10	≤ 10	–	≥ 100	≥ 100	C=CC(=O)Nc1cc(Nc2nccc(-c3cn(C45CC(C#N)(C4)C5)c4ccccc34)n2)c(OC)cc1N(C)CCN(C)C [Example 2, N-(5-((4-(1-(3-cyanobicyclo[1.1.1]pentan-1-yl)-1H-indol-3-yl)pyrimidin-2-yl)amino)-2-((2-(dimethylamino)ethyl)(methyl)amino)-4-methoxyphenyl)acrylamide]	–	–	–
≤ 50	≤ 50	–	10 to 100	≥ 300	≤ 10	≤ 10	–	≥ 100	≥ 100	C=CC(=O)Nc1cc(Nc2nccc(-c3cn(C45CC(C4)C5)c4ccccc34)n2)c(OC)cc1N(C)CCNC [Example 8, N-(5-((4-(1-(Bicyclo[1.1.1]pentan-1-yl)-1H-indol-3-yl)pyrimidin-2-yl)amino)-4-methoxy-2-(methyl(2-(methylamino)ethyl)amino)phenyl)acrylamide]	–	–	–
≤ 50	≤ 50	≤ 10	≤ 10	≥ 300	≤ 10	≤ 10	did not lead to the formation	≥ 100	≥ 100	C=CC(=O)Nc1cc(Nc2nccc(-c3cn(C45CC(C4)C5)c4ccccc34)n2)c(OC)cc1N(C)CCN(C)C [Example 1, N-(5-((4-(1-(bicyclo[1.1.1]pentan-1-yl)-1H-indol-3-yl)pyrimidin-2-yl)amino)-2-((2-(dimethylamino)ethyl)(methyl)amino)-4-methoxyphenyl)acrylamide]	–	–	–
≤ 50	≤ 50	–	≤ 10	50 to 300	≤ 10	≤ 10	–	≥ 100	≥ 100	C=CC(=O)Nc1cc(Nc2ncc(C#N)c(-c3cn(C45CC(C4)C5)c4ccccc34)n2)c(OC)cc1N(C)CCN(C)C [Example 3, N-(5-((4-(1-(bicyclo[1.1.1]pentan-1-yl)-1H-indol-3-yl)-5-cyanopyrimidin-2-yl)amino)-2-((2-(dimethylamino)ethyl)(methyl)amino)-4-methoxyphenyl)acrylamide]	–	–	–
–	–	–	–	–	–	–	–	–	–	C=CC(=O)Nc1cc(Nc2nccc(-c3c[nH]c4ccccc34)n2)c(OC)cc1N(C)CCN(C)C [AZ5104]	–	–	2
≥ 300	≥ 300	≥ 100	≥ 100	≥ 300	≥ 100	≤ 10	–	≥ 100	≥ 100	C=CC(=O)Nc1cc(Nc2nccc(-c3cn(C)c4ccccc34)n2)c(OC)cc1N(C)C12CC(N(C)C)(C1)C2 [Example 6, N-(2-((3-(dimethylamino)bicyclo[1.1.1]pentan-1-yl)(methyl)amino)-4-methoxy-5-((4-(1-methyl-1H-indol-3-yl)pyrimidin-2-yl)amino)phenyl)acrylamide]	–	–	–
≥ 300	≥ 300	–	10 to 100	≥ 300	≥ 100	≥ 100	–	≥ 100	≥ 100	C=CC(=O)Nc1cc(Nc2nccc(-c3cn(C)c4ccccc34)n2)c(OC)cc1N(C)C12CC(CN(C)C)(C1)C2 [Example 4, N-(2-((3-((dimethylamino)methyl)bicyclo[1.1.1]pentan-1-yl)(methyl)amino)-4-methoxy-5-((4-(1-methyl-1H-indol-3-yl)pyrimidin-2-yl)amino)phenyl)acrylamide]	–	–	–
≤ 50	50 to 300	–	≤ 10	≥ 300	≤ 10	≤ 10	–	≥ 100	≥ 100	C=CC(=O)Nc1cc(Nc2nccc(-c3nn(C45CC(C4)C5)c4ccccc34)n2)c(OC)cc1N(C)CCN(C)C [Example 5, N-(5-((4-(1-(bicyclo[1.1.1]pentan-1-yl)-1H-indazol-3-yl)pyrimidin-2-yl)amino)-2-((2-(dimethylamino)ethyl)(methyl)amino)-4-methoxyphenyl)acrylamide]	–	–	–
